Tested on: MV-4-11 cells
Experiment: Gene expression microarray analysis (Affymetrix PrimeView) and GSEA
Type: cell-based, human
Set-up: RFU PODN (11730768_x_at) / Fold change /veh PODN (11730768_x_at) / RFU LINC00158 (11744669_a_at) / Fold change /veh LINC00158 (11744669_a_at) / RFU DUSP10 (11751237_a_at) / Fold change /veh DUSP10 (11751237_a_at) / RFU ID3 (11757404_x_at) / Fold change /veh ID3 (11757404_x_at) / RFU PLEKHG5 (11737974_s_at) / Fold change /veh PLEKHG5 (11737974_s_at) / RFU LRRC4B (11730491_at) / Fold change /veh LRRC4B (11730491_at) / RFU GIMAP4 (11747438_a_at) / Fold change /veh GIMAP4 (11747438_a_at) / RFU KRT8 (11758183_x_at) / Fold change /veh KRT8 (11758183_x_at) / RFU CNN1 (11734310_a_at) / Fold change /veh CNN1 (11734310_a_at) / RFU VPS37D (11726825_at) / Fold change /veh VPS37D (11726825_at) / RFU C10orf10 (11716522_x_at) / Fold change /veh C10orf10 (11716522_x_at) / RFU KIR2DL2 /// KIR2DL4 /// KIR2DL5A /// KIR2DL5B /// KIR2DS1 /// KIR2DS2 /// KIR2DS3 /// KIR2DS4 /// KIR3DL3 /// KIR3DL3 /// KIR3DS1 (11738374_at) / Fold change /veh KIR2DL2 /// KIR2DL4 /// KIR2DL5A /// KIR2DL5B /// KIR2DS1 /// KIR2DS2 /// KIR2DS3 /// KIR2DS4 /// KIR3DL3 /// KIR3DL3 /// KIR3DS1 (11738374_at) / RFU C1QL1 (11718748_at) / Fold change /veh C1QL1 (11718748_at) / RFU TMPRSS4 (11747572_a_at) / Fold change /veh TMPRSS4 (11747572_a_at) / RFU HAMP (11756126_x_at) / Fold change /veh HAMP (11756126_x_at) / RFU RNFT2 (11725882_a_at) / Fold change /veh RNFT2 (11725882_a_at) / RFU NR4A2 (11747474_a_at) / Fold change /veh NR4A2 (11747474_a_at) / RFU ABCC12 (11746883_a_at) / Fold change /veh ABCC12 (11746883_a_at) / RFU TMEM136 (11760407_x_at) / Fold change /veh TMEM136 (11760407_x_at) / RFU CLDN22 /// WWC2 (11732394_at) / Fold change /veh CLDN22 /// WWC2 (11732394_at) / RFU HLA-DPB1 (11760878_x_at) / Fold change /veh HLA-DPB1 (11760878_x_at) / RFU SPINT1 (11716480_a_at) / Fold change /veh SPINT1 (11716480_a_at) / RFU GAP43 (11754022_s_at) / Fold change /veh GAP43 (11754022_s_at) / RFU A4GNT (11735810_at) / Fold change /veh A4GNT (11735810_at) / RFU PRB3 (11715151_x_at) / Fold change /veh PRB3 (11715151_x_at) / RFU TUBB4B (11761932_at) / Fold change /veh TUBB4B (11761932_at) / RFU CAPN14 (11732068_a_at) / Fold change /veh CAPN14 (11732068_a_at) / RFU TMCC2 (11721928_a_at) / Fold change /veh TMCC2 (11721928_a_at) / RFU IRGQ (11745062_a_at) / Fold change /veh IRGQ (11745062_a_at) / RFU FAM174B (11720279_a_at) / Fold change /veh FAM174B (11720279_a_at) / RFU TMPRSS4 (11748680_a_at) / Fold change /veh TMPRSS4 (11748680_a_at) / RFU FAM212B (11763350_a_at) / Fold change /veh FAM212B (11763350_a_at) / RFU PLEKHG5 (11743358_a_at) / Fold change /veh PLEKHG5 (11743358_a_at) / RFU ZSCAN30 (11745921_a_at) / Fold change /veh ZSCAN30 (11745921_a_at) / RFU CMKLR1 (11741424_a_at) / Fold change /veh CMKLR1 (11741424_a_at) / RFU LOC101060620 /// MAPK8IP1 (11723275_at) / Fold change /veh LOC101060620 /// MAPK8IP1 (11723275_at) / RFU SPTSSB (11747773_x_at) / Fold change /veh SPTSSB (11747773_x_at) / RFU PRSS12 (11739890_at) / Fold change /veh PRSS12 (11739890_at) / RFU BIN1 (11741810_x_at) / Fold change /veh BIN1 (11741810_x_at) / RFU WNT11 (11732464_a_at) / Fold change /veh WNT11 (11732464_a_at) / RFU C10orf10 (11716521_a_at) / Fold change /veh C10orf10 (11716521_a_at) / RFU C5orf56 (11738089_at) / Fold change /veh C5orf56 (11738089_at) / RFU CYB561 (11721691_x_at) / Fold change /veh CYB561 (11721691_x_at) / RFU ANKRD19P (11752326_a_at) / Fold change /veh ANKRD19P (11752326_a_at) / RFU OR2T12 /// OR2T33 /// OR2T8 (11738714_s_at) / Fold change /veh OR2T12 /// OR2T33 /// OR2T8 (11738714_s_at) / RFU VCAN (11748164_a_at) / Fold change /veh VCAN (11748164_a_at) / RFU JSRP1 (11732532_at) / Fold change /veh JSRP1 (11732532_at) / RFU KRTAP10-11 (11738290_x_at) / Fold change /veh KRTAP10-11 (11738290_x_at) / RFU MYO3A (11730013_a_at) / Fold change /veh MYO3A (11730013_a_at) / RFU EBF3 (11725865_a_at) / Fold change /veh EBF3 (11725865_a_at) / RFU CAMK2N1 (11719241_x_at) / Fold change /veh CAMK2N1 (11719241_x_at) / RFU C5orf56 (11738088_a_at) / Fold change /veh C5orf56 (11738088_a_at) / RFU OLFML3 (11715873_a_at) / Fold change /veh OLFML3 (11715873_a_at) / RFU LOC100653217 /// NTM (11731650_a_at) / Fold change /veh LOC100653217 /// NTM (11731650_a_at) / RFU MAPK11 (11762145_a_at) / Fold change /veh MAPK11 (11762145_a_at) / RFU FIZ1 (11724087_x_at) / Fold change /veh FIZ1 (11724087_x_at) / RFU OASL (11726364_x_at) / Fold change /veh OASL (11726364_x_at) / RFU SOX15 (11748057_x_at) / Fold change /veh SOX15 (11748057_x_at) / RFU CD79A (11719716_a_at) / Fold change /veh CD79A (11719716_a_at) / RFU HIST1H1D (11736915_at) / Fold change /veh HIST1H1D (11736915_at) / RFU CASKIN2 (11723855_a_at) / Fold change /veh CASKIN2 (11723855_a_at) / RFU LOC730098 (11760151_x_at) / Fold change /veh LOC730098 (11760151_x_at) / RFU OR4N2 (11742367_at) / Fold change /veh OR4N2 (11742367_at) / RFU PRRT2 (11749266_a_at) / Fold change /veh PRRT2 (11749266_a_at) / RFU SNX32 (11753110_a_at) / Fold change /veh SNX32 (11753110_a_at) / RFU CDHR5 (11726645_a_at) / Fold change /veh CDHR5 (11726645_a_at) / RFU RCAN1 (11760418_a_at) / Fold change /veh RCAN1 (11760418_a_at) / RFU FAM167A (11723789_a_at) / Fold change /veh FAM167A (11723789_a_at) / RFU FAM26E (11764081_at) / Fold change /veh FAM26E (11764081_at) / RFU ISYNA1 (11749810_s_at) / Fold change /veh ISYNA1 (11749810_s_at) / RFU ACY1 (11761880_at) / Fold change /veh ACY1 (11761880_at) / RFU 11764098_at / Fold change /veh 11764098_at / RFU SAMD14 (11745864_x_at) / Fold change /veh SAMD14 (11745864_x_at) / RFU NPB (11741838_a_at) / Fold change /veh NPB (11741838_a_at) / RFU TMPRSS6 (11731388_a_at) / Fold change /veh TMPRSS6 (11731388_a_at) / RFU KRTAP10-2 (11738614_at) / Fold change /veh KRTAP10-2 (11738614_at) / RFU ARHGAP8 /// PRR5-ARHGAP8 (11727945_x_at) / Fold change /veh ARHGAP8 /// PRR5-ARHGAP8 (11727945_x_at) / RFU KRTAP5-7 /// NADSYN1 (11734609_at) / Fold change /veh KRTAP5-7 /// NADSYN1 (11734609_at) / RFU RASL12 (11751679_a_at) / Fold change /veh RASL12 (11751679_a_at) / RFU CDKN2B (11736163_a_at) / Fold change /veh CDKN2B (11736163_a_at) / RFU PRF1 (11729649_at) / Fold change /veh PRF1 (11729649_at) / RFU, ZNF638 /// ZNF638-IT1 / Fold change vs veh, ZNF638 /// ZNF638-IT1 / RFU, PANK3 / Fold change vs veh, PANK3 / RFU, SH3YL1 / Fold change vs veh, SH3YL1 / RFU, ZEB2 / Fold change vs veh, ZEB2 / RFU, NRIP1 / Fold change vs veh, NRIP1 / RFU, PTTG1IP / Fold change vs veh, PTTG1IP / RFU, CAPN2 / Fold change vs veh, CAPN2 / RFU, MED14 / Fold change vs veh, MED14 / RFU, SNORA58 / Fold change vs veh, SNORA58 / RFU, C1orf63 / Fold change vs veh, C1orf63 / RFU, LRRFIP1 / Fold change vs veh, LRRFIP1 / RFU, NDUFAF7 / Fold change vs veh, NDUFAF7 / RFU, SLC12A2 / Fold change vs veh, SLC12A2 / RFU, IBTK / Fold change vs veh, IBTK / RFU, ESF1 / Fold change vs veh, ESF1 / Fold change vs veh, TMEM50B / RFU, TAOK1 / Fold change vs veh, TAOK1 / RFU, ACBD3 / Fold change vs veh, ACBD3 / RFU, TMA16 / Fold change vs veh, TMA16 / RFU, RWDD3 / Fold change vs veh, RWDD3 / RFU, BCAT1 / Fold change vs veh, BCAT1 / RFU, EDEM3 / Fold change vs veh, EDEM3 / RFU, TMEM33 / Fold change vs veh, TMEM33 / RFU, WDR75 / Fold change vs veh, WDR75 / RFU, AHCTF1 / Fold change vs veh, AHCTF1 / RFU, TFRC / Fold change vs veh, TFRC / RFU, ZDHHC17 / Fold change vs veh, ZDHHC17 / RFU, NOM1 / Fold change vs veh, NOM1 / RFU, ARL8B / Fold change vs veh, ARL8B / RFU, ZBTB11 / Fold change vs veh, ZBTB11 / RFU, TAMM41 / Fold change vs veh, TAMM41 / RFU, KIAA1704 /// LOC100996395 / Fold change vs veh, KIAA1704 /// LOC100996395 / RFU, ING1 / Fold change vs veh, ING1 / RFU, TRMT61B / Fold change vs veh, TRMT61B / RFU, FUBP3 / Fold change vs veh, FUBP3 / RFU, TP53 / Fold change vs veh, TP53 / RFU, TNKS2 / Fold change vs veh, TNKS2 / RFU, ZFP14 / Fold change vs veh, ZFP14 / RFU, ACTR2 / Fold change vs veh, ACTR2 / RFU, PPP3R1 / Fold change vs veh, PPP3R1 / RFU, PIK3R1 / Fold change vs veh, PIK3R1 / RFU, HNRNPA1 / Fold change vs veh, HNRNPA1 / RFU, RNF170 / Fold change vs veh, RNF170 / RFU, ZNF28 / Fold change vs veh, ZNF28 / RFU, RNGTT / Fold change vs veh, RNGTT / RFU, OGT / Fold change vs veh, OGT / RFU, BRD1 / Fold change vs veh, BRD1 / RFU, MARS / Fold change vs veh, MARS / RFU, ZNF655 / Fold change vs veh, ZNF655 / RFU, FAHD1 / Fold change vs veh, FAHD1 / RFU, BDP1 / Fold change vs veh, BDP1 / RFU, LRRCC1 / Fold change vs veh, LRRCC1 / RFU, ARID1A / Fold change vs veh, ARID1A / RFU, ZNF146 / Fold change vs veh, ZNF146 / RFU, ZNF330 / Fold change vs veh, ZNF330 / RFU, GPN3 / Fold change vs veh, GPN3 / RFU, C9orf123 / Fold change vs veh, C9orf123 / RFU, N4BP2L2 / Fold change vs veh, N4BP2L2 / RFU, ARFIP1 / Fold change vs veh, ARFIP1 / RFU, FAM179B / Fold change vs veh, FAM179B / RFU, BCL10 / Fold change vs veh, BCL10 / RFU, UHRF1BP1L / Fold change vs veh, UHRF1BP1L / RFU, BET1 / Fold change vs veh, BET1 / RFU, CNOT2 / Fold change vs veh, CNOT2 / RFU, ZNF268 / Fold change vs veh, ZNF268 / Fold change vs veh, ZNF507 / RFU, DGCR2 / Fold change vs veh, DGCR2 / RFU, WDSUB1 / Fold change vs veh, WDSUB1 / Fold change vs veh, HSP90B1 /// MIR3652 / RFU, ADSS / Fold change vs veh, ADSS / RFU, GK / Fold change vs veh, GK / RFU, ZNF148 / Fold change vs veh, ZNF148 / RFU, TAF9 / Fold change vs veh, TAF9 / RFU, SLC1A5 / Fold change vs veh, SLC1A5 / RFU, SLMO2 / Fold change vs veh, SLMO2 / RFU, ABCC4 / Fold change vs veh, ABCC4 / RFU, LOC101060439 /// RAP1B / Fold change vs veh, LOC101060439 /// RAP1B / RFU, RFX7 / Fold change vs veh, RFX7 / RFU, GTPBP10 / Fold change vs veh, GTPBP10 / RFU, CNEP1R1 / Fold change vs veh, CNEP1R1 / RFU, BIVM-ERCC5 /// ERCC5 / Fold change vs veh, BIVM-ERCC5 /// ERCC5 / RFU, ILF3 / Fold change vs veh, ILF3 / RFU 11762660_at / Fold change /veh 11762660_at / RFU VCAN (11757783_s_at) / Fold change /veh VCAN (11757783_s_at) / RFU DDX43 (11728927_at) / Fold change /veh DDX43 (11728927_at) / RFU KRT8 (11758188_x_at) / Fold change /veh KRT8 (11758188_x_at) / RFU NKD1 (11759106_at) / Fold change /veh NKD1 (11759106_at) / RFU SRD5A1 (11742802_a_at) / Fold change /veh SRD5A1 (11742802_a_at) / RFU TPSAB1 /// TPSB2 (11721975_s_at) / Fold change /veh TPSAB1 /// TPSB2 (11721975_s_at) / RFU GSTM3 (11746129_a_at) / Fold change /veh GSTM3 (11746129_a_at) / RFU IL23R (11737362_x_at) / Fold change /veh IL23R (11737362_x_at) / RFU TMEM51 (11727254_a_at) / Fold change /veh TMEM51 (11727254_a_at) / RFU PIWIL2 (11732686_x_at) / Fold change /veh PIWIL2 (11732686_x_at) / RFU ORM1 (11744905_x_at) / Fold change /veh ORM1 (11744905_x_at) / RFU CCDC152 (11743942_at) / Fold change /veh CCDC152 (11743942_at) / RFU ECM1 (11717891_a_at) / Fold change /veh ECM1 (11717891_a_at) / RFU IL23R (11748794_a_at) / Fold change /veh IL23R (11748794_a_at) / RFU TNFAIP8L3 (11732012_x_at) / Fold change /veh TNFAIP8L3 (11732012_x_at) / RFU MBOAT4 (11741988_at) / Fold change /veh MBOAT4 (11741988_at) / RFU 11764193_at / Fold change /veh 11764193_at / RFU TMEM53 (11763286_at) / Fold change /veh TMEM53 (11763286_at) / RFU MAGEB2 (11727129_at) / Fold change /veh MAGEB2 (11727129_at) / RFU TMEM200A (11744735_a_at) / Fold change /veh TMEM200A (11744735_a_at) / RFU CCDC152 (11751479_a_at) / Fold change /veh CCDC152 (11751479_a_at) / RFU FAM211A (11726209_a_at) / Fold change /veh FAM211A (11726209_a_at) / RFU RGS16 (11746705_a_at) / Fold change /veh RGS16 (11746705_a_at) / RFU VCAN (11755009_s_at) / Fold change /veh VCAN (11755009_s_at) / RFU RHOB (11743442_s_at) / Fold change /veh RHOB (11743442_s_at) / RFU RGS16 (11720943_a_at) / Fold change /veh RGS16 (11720943_a_at) / RFU RGS16 (11720944_at) / Fold change /veh RGS16 (11720944_at) / RFU, VPS4B / Fold change vs veh, VPS4B / RFU, CREB1 / Fold change vs veh, CREB1 / RFU, DNAJC13 / Fold change vs veh, DNAJC13 / RFU, GNAQ / Fold change vs veh, GNAQ / RFU, CDK5R1 / Fold change vs veh, CDK5R1 / RFU, ZRANB3 / Fold change vs veh, ZRANB3 / RFU, CUL4A / Fold change vs veh, CUL4A / RFU, CCNY / Fold change vs veh, CCNY / RFU, UFL1 / Fold change vs veh, UFL1 / RFU, COG3 / Fold change vs veh, COG3 / RFU, DIAPH2 / Fold change vs veh, DIAPH2 / RFU, SKA2 / Fold change vs veh, SKA2 / RFU, AFF3 / Fold change vs veh, AFF3 / RFU, LMF1 / Fold change vs veh, LMF1 / RFU, IPO11 / Fold change vs veh, IPO11 / RFU, DFFB / Fold change vs veh, DFFB / RFU, FOXP1 / Fold change vs veh, FOXP1 / RFU, CARD8 / Fold change vs veh, CARD8 / RFU, STRN3 / Fold change vs veh, STRN3 / RFU, ADK / Fold change vs veh, ADK / RFU, RASSF2 / Fold change vs veh, RASSF2 / RFU, WIPF1 / Fold change vs veh, WIPF1 / RFU, LARP1B / Fold change vs veh, LARP1B / RFU, RASA1 / Fold change vs veh, RASA1 / RFU, RB1 / Fold change vs veh, RB1 / RFU, PPFIA1 / Fold change vs veh, PPFIA1 / RFU, MAT2A / Fold change vs veh, MAT2A / RFU, CCT5 / Fold change vs veh, CCT5 / RFU, WDR92 / Fold change vs veh, WDR92 / RFU, CUX1 / Fold change vs veh, CUX1 / RFU, TTC7A / Fold change vs veh, TTC7A / RFU, TMEM135 / Fold change vs veh, TMEM135 / RFU, DEPTOR / Fold change vs veh, DEPTOR / RFU, CPM / Fold change vs veh, CPM / RFU, DNAJB6 / Fold change vs veh, DNAJB6 / RFU, CACNA2D3 / Fold change vs veh, CACNA2D3 / RFU, DTX4 / Fold change vs veh, DTX4 / RFU, TFCP2 / Fold change vs veh, TFCP2 / RFU, GMCL1 /// GMCL1P1 / Fold change vs veh, GMCL1 /// GMCL1P1 / RFU, AEBP2 / Fold change vs veh, AEBP2 / RFU, SNHG1 /// SNORD22 /// SNORD25 /// SNORD26 /// SNORD27 /// SNORD28 /// SNORD29 /// SNORD31 / Fold change vs veh, SNHG1 /// SNORD22 /// SNORD25 /// SNORD26 /// SNORD27 /// SNORD28 /// SNORD29 /// SNORD31 / Fold change (Aza/veh), C12orf56 (ProbeSet 11735607_a_at) / Fold change (ACY-1035/veh), C12orf56 (ProbeSet 11735607_a_at) / Fold change (Aza/veh), FGFR1OP (ProbeSet 11751329_s_at) / Fold change (ACY-1035/veh), FGFR1OP (ProbeSet 11751329_s_at) / Fold change (Aza/veh), VPS36 (ProbeSet 11739960_a_at) / Fold change (ACY-1035/veh), VPS36 (ProbeSet 11739960_a_at) / RFU SYPL1 (11715823_x_at) / Fold change /veh SYPL1 (11715823_x_at) / RFU IGFBP7 (11715501_s_at) / Fold change /veh IGFBP7 (11715501_s_at) / RFU REEP3 (11722064_at) / Fold change /veh REEP3 (11722064_at) / RFU IGLL1 (11728026_x_at) / Fold change /veh IGLL1 (11728026_x_at): dose or concentration left out as unconfirmed
Details: ProbeSet 11715478_a_at; LIST B

Nc1ccc(-c2cccs2)cc1NC(=O)c1ccc2c(c1)cc(C1CC1)n2CCN1CCOCC1 [ACY-1035]
RFU, TFRC: 135.12 RFU

Reference: PMC5218480 (PLoS ONE, 2017)
